The values that follow are results of earlier work, collected in patent US20250099590A1, “HIGH DENSITY ULTRASOUND COUPLING GEL AND METHODS OF USE THEREOF” (ZetrOZ Systems LLC, priority 2023, published 2025).

The subject of series [1] is osteoarthritis-induced pain. As to conditions: SAM treatment with 1% topical diclofenac, after 7 days.
Another series concerns musculoskeletal injuries. The following applies: SAM with 2.5% diclofenac, after 4-weeks of daily home-use.

With `O=C(O)Cc1ccccc1Nc1c(Cl)cccc1Cl` [diclofenac], in series [1], the “Western Ontario McMaster Outcome (WOMAC)” value is “improved” and the osteoarthritis-induced pain entry was “significantly alleviated”. In the series with musculoskeletal injuries, the “global health and function” value is “global health and functional improvement”; the pain entry is on record as “significant pain reduction”.
